Data on one compound can be found in US6596712B2, “Treatment of carcinomas using squalamine in combination with other anti-cancer agents or modalities” (Genaera Corporation, priority 1996, dated 2003).

Series [1] deals with VEGF-stimulated bovine retinal endothelial cells. As to the kind of experiment: Growth of VEGF-stimulated endothelial cells. It is filed as cell-based. Conditions: Bos taurus, Endothelial cell, 48 hours, VEGF 20 ng/ml. Here is the method:
In conducting this in vitro analysis, the following cell lines were tested: (a) bovine retinal endothelial cells; (b) 9L and C6 rat glioma cells; (c) human H80 glioma cells; and (d) VX2 rabbit carcinoma cells (the same type as the tumors implanted in the rabbit corneal micropocket assay test described above). The endothelial mitogen which was used in this analysis was VEGF at a concentration of 20 ng/ml.
The cells were allowed to attach overnight to tissue culture plates containing an optimized growth media. Following attachment, the cells were exposed to solvent only or 5 to increasing concentrations of squalamine (0, 10, 20, 30, 60, and 90 μg squalamine/ml). Cell growth was counted daily for three days using a Coulter Counter. A total of 10,000 cells per well were plated and each experimental concentration was tested in quadruplicate. The results were then averaged. The bovine retinal endothelial cells were grown and treated in an identical manner to the other cell lines, except that the growth of these cells was measured after the addition of 20 ng/ml of human recombinant VEGF to the cells prior to the squalamine treatment.
Percentage endothelial cell growth inhibition (%I) was determined by the following equation: [formula]

Another series concerns LNCaP cells. In words: LNCaP cell growth in vitro ([3H]-thymidine incorporation). It is filed as cell-based, human. Here is the method: The anti-proliferative effect of squalamine was evaluated in tissue culture by both crystal violet staining and [^3H]-thymidine incorporation, on the LNCaP/C4-2 human prostate cancer progression model. Developed by applicants' laboratory, this lineage-derived cell line recapitulates the progression of human neoplastic prostate disease from an androgen-dependent and minimally metastatic condition (LNCaP cells) to an androgen-independent (defined as being able to proliferate in castrate hosts) and highly aggressive state (C4-2 subline).
In vitro experiments were also conducted with the LNCAP cell line in which cell proliferation as judged by [3H]-thymidine uptake was determined. LNCaP cells were maintained as previously described (cf. J. T. Hsieh et al., Cancer Research 53, 2852-2857 (1993)). Cells were exposed to 20 ng/mL vascular endothelial growth factor (VEGF), 20 μg/mL squalamine or a combination of VEGF and squalamine. […] As a consequence, the mechanism underlying the effectiveness of squalamine treatment of the LNCaP tumor in vivo may under certain conditions also involve direct inhibition of tumor cell growth and/or induction of tumor cell death.

Series [2] in a line: Pharmacokinetic study, half-life. Conditions: in vivo. Here is the method: A pharmacokinetic study of squalamine was performed to ascertain the residence time of squalamine in the body. FIGS. 6a to 6c illustrate the test results where squalamine was administered subcutaneously (50 mg/kg, FIG. 6a), intraperitoneally (dose 240 μg; 10 mg/kg, FIG. 6b), and intravenously (10 mg/kg, FIG. 6c).

Series [3] relates to murine Lewis lung adenocarcinoma. As to the kind of experiment: Lung metastases of subcutaneous Lewis lung carcinoma. It is filed as in vivo, C57BL/6 mice. Conditions: day 20; squalamine 20 mg/kg/day s.c.; cyclophosphamide 125 mg/kg i.p. days 7, 9, 11; cisplatin 10 mg/kg i.p. day 7. Here is the method:
The murine Lewis lung adenocarcinoma was implanted subcutaneously in the hind-leg of male C57BL/6 mice and allowed to grow for one week. Groups of mice were then left untreated or treated with either squalamine (20 mg/kg/day, s.c.), cyclophosphamide (125 mg/kg, i.p. on days 7, 9 and 11), cisplatin (10 mg/kg, i.p. on day 7), the combination of squalamine and cyclophosphamide, or the combination of squalamine and cisplatin. On day 20, the animals were sacrificed, and the mean number of lung metastases were determined for each group.

A further series deals with parental 2008 cell line. In words: Human ovarian tumor 2008 xenograft with cisplatin. Conditions: cisplatin single dose 4 mg/kg, squalamine 2 mg/kg, days 1-10. It is filed as in vivo, female Swiss nude mice. Here is the method: Human ovarian tumor cells were injected subcutaneously (5×10^7 cells per animal) in the mid-back region of female Swiss nude mice. The human ovarian tumors were either the parental 2008 cell line (cf. R. J. Pietras et al., Oncogene 9, 1829-1838 (1994)) or a transfected variant overexpressing the Her-2/neu receptor. The overexpression of the Her-2/neu receptor is considered to make the resulting xenograft tumors more angiogenic and less responsive to chemotherapy. After one week, animals were randomized to groups receiving no treatment (controls), a single dose of cisplatin (4 mg/kg), daily treatment with squalamine (2 mg/kg, days 1-10) or cisplatin plus squalamine. The growth of tumors was then scored on day 28 following initiation of chemotherapy. The results were very similar with the parental 2008 tumor and the transfected variant overexpressing the Her-2/neu receptor. […] In this xenograft model, the [day 28 mean treated tumor weight increase divided by the day 28 mean control tumor weight increase (T/C)] x 100% was subtracted from 100% to give the tumor growth inhibition (TGI) value for each group.

Series [4] has as its system human MX-1 breast cancer line. It is filed as in vivo. Here is the method:
These documents each are entirely incorporated herein by reference. Squalamine was examined as adjunctive therapy following a single 200 mg/kg dose of cyclophosphamide. The cyclophosphamide was injected on day 14 following implantation of the tumor, at a time when the tumors measured 65-125 μl. […] The animals were then randomized to three treatment arms (each n=27): vehicle dosing only (Intralipid); squalamine given 10 mg/kg/day in Intralipid; and squalamine given 20 mg/kg/day in Intralipid for five days a week. Animals whose tumors exceeded 2 grams at any time during the experiment were euthanized. The experiment was continued for 90 days after initiating squalamine treatment to ensure that only mice experiencing long-term cures were still alive.

Series [5] concerns 9L gliosarcoma tumors (9L glioma). In words: 9L glioma flank study. It is filed as in vivo, Fisher 344 rats. The settings on record: Day 25 or 26 after implantation, treatment from Day 5 per Table 4. Here is the method: Four groups of rats (twenty total Fisher 344 rats, 200 g) were given s.q. transplants of 1 mm3 9L gliosarcoma tumors (9L glioma) on Day 0. The tumors were implanted in the rat flanks to avoid complications relating to adequate brain levels of squalamine. Randomization and treatment began on Day 5 according to the following scheme:
On Day 25 or 26 after tumor implantation, the tumor size was measured directly. The tumor size (i.e., its volume “V”) was estimated based on volumetric calculations determined from the measured length (“L”), width (“W”), and height (“H”) of the tumor (Vtumor spheroid˜0.5 ×L×W×H). The tumor volumes shown in Table 5 represent the mean tumor volumes for each treatment group for those animals that survived to the end of the experiment.

As a reminder, the inhibition is how much of the control response was suppressed. Lower therefore signals a weak effect. As a reminder, the half-life is how long it takes for the measured level to halve. For `CC(C)[C@@H](CC[C@@H](C)[C@H]1CC[C@H]2[C@@H]3[C@H](O)C[C@H]4C[C@@H](NCCCNCCCCN)CC[C@]4(C)[C@H]3CC[C@]12C)OS(=O)(=O)O` [Squalamine, squalamine], the inhibition at 10 µg/mL in series [1] (10 μg/ml) worked out at 38%. For the same compound, in series [1] (20 μg/ml), testing at 20 µg/mL gave an inhibition of 57%. For the same compound, the inhibition at 30 µg/mL in series [1] (30 μg/ml) was determined as 83%. For the same compound, the “Percent of Control [3H]-Thymidine Uptake” value in the series on LNCaP cells (20 ng/mL VEGF and/or 20 μg/mL squalamine, 24 hours, media containing serum) is 75%. Besides, the “effect on cell growth alone” value with LNCaP cells (media containing serum, 20 ng/mL VEGF or 20 μg/mL squalamine) was “minimal effects on cell growth”. Moreover, the “growth of LNCaP cells, squalamine by itself” value in the series on LNCaP cells (no exogenous VEGF) is on record as “nominal effect”. For the same compound, the LNCaP proliferation result in the series on LNCaP cells (with addition of exogenous VEGF) is “inhibited”. Moreover, the half-life in series [2] (ip, intraperitoneally, dose 240 μg, 10 mg/kg) was 2.87 h; in series [2] (iv, intravenously, 10 mg/kg), 0.583 h; in series [2] (sc, subcutaneously, 50 mg/kg), 5.6 h. Besides, in series [3], the “mean number of lung metastases” value is reported as “reduced the number of metastases”. The “Day 28 Mean Tumor Size” value in the series with parental 2008 cell line was found to be 2254 mm^3. For the same compound, the “Tumor Growth Inhibition (TGI) Index” value in the series with parental 2008 cell line (day 28) turned out to be 41%. Further, the “rate of progression of the breast tumors” value in series [4] (squalamine 10 mg/kg/day after single 200 mg/kg cyclophosphamide, all times examined) was “significant (P<0.01) inhibition in the rate of progression of the breast tumors”. Further, in series [4] (squalamine 20 mg/kg/day after single 200 mg/kg cyclophosphamide, only at 30 days post-initiation), the “progression of the breast tumors” value is “significant (P<0.05) delay in progression of the breast tumors”. In addition, in series [4] (squalamine 20 mg/kg/day for five weeks after cyclophosphamide, 90 days), the “long-term cure rate vs cyclophosphamide alone” value is “doubled the long-term cure rate”. Moreover, the “tolerability of high dose” value in series [4] (squalamine 20 mg/kg/day, discontinued after five weeks) is “animal weight loss and potential toxicity concerns”. Moreover, the “% Reduction (based on control volume)” value in series [5] and in series [5] (listed as squalamine) was 81.7% each time. Moreover, the “Mean Tumor volume” value in series [5] is reported as 3,347 mm^3.
